Assay results reported in US20220125042A1, “CRYOPROTECTANT AND/OR CRYOPRESERVANT COMPOSITION, METHODS AND USES THEREOF” (UNIVERSIDADE NOVA DE LISBOA, priority 2017, published 2022).

Columns and labels:
L929 cell lines = assay: Direct contact of NADES with cell culture, viability by MTS assay; assay type: cell-based; details: FIG. 3
Description: In an embodiment, the L929 cell lines were grown in DMEM (Sigma, USA), supplemented with 10% heat-inactivetes fetal bovine serum (FBS, Biochron AG, Germany) and 1% antibiotic-antimicotic (Gibco, USA). The cells were cultured in a humidified atmosphere of 37° C., with 5% CO2.
In an embodiment, the viability of the systems prepared was measured using a method of direct contact with cells (Direct−contact of NADES with cell culture). The cells were seeded onto a 96-well plate for 24 h in the total 1×10^4 cells/well. After 24 h, the medium was removed and extracts with different percentage of NADES, in particular 1%, 5%, 10% and 20% in culture medium were added. The viability of the cells cultured with these extracts was determined by MTS assay, after 24 h and 72 h.
In an embodiment, the MTS cell viability assay was conducted as follows: the influence of the cryopreservants was determined by MTS assay (Cell Titer 96 Aqueous One Solution Cell Proliferation Assay, Promega, USA) after 24 h and 72 h of culture. […] The absorbance was measured at a wavelength of 490 nm using a microplate spectrometer (Synergy HT, Bio-TEK, USA). To the results of absorbance was subtracting the absorbance obtained by blank (culture medium MTS with MTS reagent). […]

L929 cell line = assay: Cryopreservation (freezing/thawing) of cells with cryoprotective agent; morphology, live-dead, DAPI-Phalloidin and MTS viability after thawing; assay type: cell-based; details: 10% cryopreservant, FIG. 4
Description: In an embodiment, the cells were freezed and thawed, in particular the cells were collected by centrifugation (300 rpm for 5 min) and suspended in cool mixture with FBS and cryopreservant (DMSO or Treh-Gly; 5% and 10% cryopresenvant in the FBS). The cells and freezing medium were dispensed into cryotubes (Nunc) (1×10^6 cells/1 mL), and immediately placed into a freezing box (Mr. Frosty) at −20° C. for 2 h. Latter they were placed for 24 h at −80° C. and then the cryotubes were placed in liquid nitrogen. The cells were frozen for 1, 2 and 3 months. As control trehalose and glycerol alone were used in the same concentration. […] In an embodiment, the MTS cell viability assay was conducted as follows: the influence of the cryopreservants was determined by MTS assay (Cell Titer 96 Aqueous One Solution Cell Proliferation Assay, Promega, USA) after 24 h and 72 h of culture. […] The absorbance was measured at a wavelength of 490 nm using a microplate spectrometer (Synergy HT, Bio-TEK, USA). To the results of absorbance was subtracting the absorbance obtained by blank (culture medium MTS with MTS reagent). In an embodiment, the live/dead cell viability assay was used (calcein AM/propidium iodide (PI) staining) (n=5 samples per well) to evaluated cell viability. […] In an embodiment, in vitro biological evaluation of NADES performance as cryopreservant was assessed using the L929 cell line. […]

| Compound | cell viability in contact with cells (L929 cell lines; 10% and 20% in the culture media) | cell viability in contact with cells (L929 cell lines; low concentrations, 1 or 5% in culture media) | morphological analysis and cell viability after cryopreservation (L929 cell line) |
| --- | --- | --- | --- |
| C[S+](C)[O-] [DMSO] | cell dead | very low viability | – |
| OCC(O)CO [glycerol] | – | – | somewhat compromised |
| OC[C@H]1O[C@H](O[C@H]2O[C@H](CO)[C@@H](O)[C@H](O)[C@H]2O)[C@H](O)[C@@H](O)[C@@H]1O [trehalose] | – | – | somewhat compromised |
